Data on 3 compounds can be found in EP2331496B1, “USE OF AN N-ACYL AMINO ACID SELECTED FROM AMONG N-PALMITOYL ALANINE, N-PALMITOYL GLYCINE, AND N-PALMITOYL ISOLEUCINE AS A REGULATING ACTIVE AGENT OF THE GENETIC PROFILE OF SENESCENT REPLICATING FIBROBLASTS OF THE HUMAN SKIN DERMIS” (Societe D'Exploitation De Produits Pour Les Industries …, priority 2008, dated 2010).

Molecules are shown by their SMILES.

For test [1], the system named is gène codant la cytokine pro-inflammatoire IL-6. In words: Q-PCR gene expression in replicative senescent human dermal fibroblasts: IL-6. The class given is cell-based, humains. As to conditions: aged fibroblasts from adult dermis (16 passages), cultured 96 h with the substance, compared with young cells (8 passages, 100 %). The source says:
(§1) Des fibroblastes humains normaux issus de derme adulte et vieillis de manière accélérée (16 passages en culture) ou non (8 passages en culture) ont été cultivés en présence ou non de chacun des quatre N-acyl amino acides suivants : N-palmitoyl glycine, N-palmitoyl alanine, N-palmitoyl isoleucine et N-cocoyl alanine pendant 96 heures. A la fin de l'expérience, les cellules ont été lavées et extraites pour l'analyse génomique. Cette dernière a été réalisée par Q-PCR ("Quantitative Polymerase Chain Reaction").
(§2) Pour chacun des diagrammes de ces figures, les résultats sont exprimés en pourcentage de variation des niveaux relatifs d'expression génique par rapport aux cellules jeunes (100 %), les pourcentages en haut des histogrammes expriment les pourcentages de restauration et les abréviations indiquées sont conformes à la nomenclature officielle Genbank.

In test [2] the test system is sujets caucasiens âgés de 45 ans à 76 ans et présentant des rides de vieillissement cutané. In words: In vivo anti-wrinkle efficacy, topical gel-cream on the eye contour (crow's feet). The arrangement: species or system humain. To be noted: 1% gel-cream, topical twice daily on the face, crow's feet zone, 42 days, about 20 volunteers/group; results expressed relative to a commercial reference lipopeptide product. An excerpt: Les N-acyl amino acides testés ont été formulés en gel-crème à 1% dans le couple d'émulsionnants MONTANOV™ 202, MONTANOV™ 82, l'épaississant SEPIPLUS™ 400 ainsi que le MONTANOX™ 60D, afin d'effectuer des applications topiques biquotidiennes sur le visage de sujets caucasiens âgés de 45 ans à 76 ans et présentant des rides de vieillissement cutané (environ 20 volontaires/groupe). Un produit lipopeptidique commercial de référence a également été testé selon le même protocole expérimental.
La région anatomique choisie pour cette étude était la zone du contour de l'oeil (patte d'oie).
La durée du traitement a été de 42 jours.
Les résultats ont été exprimés en termes de surface ridée totale et de nombre de rides par rapport à un produit lipopeptidique commercial de référence.

The test system of test [3] is gène codant la dermatopontine (DPT). As to the kind of experiment: Q-PCR gene expression in replicative senescent human dermal fibroblasts: DPT. The class given is cell-based, humains. As to conditions: aged fibroblasts from adult dermis (16 passages), cultured 96 h with the substance, compared with young cells (8 passages, 100 %).
Source text: as §1, §2

For test [4], the system named is gène codant la métallo protéinase MMP-1. In words: Q-PCR gene expression in replicative senescent human dermal fibroblasts: MMP-1. The class given is cell-based, humains. As to conditions: aged fibroblasts from adult dermis (16 passages), cultured 96 h with the substance, compared with young cells (8 passages, 100 %).
Source text: as §1, §2

Test [5] concerns gène codant le collagène de type I (COL1A1). In words: Q-PCR gene expression in replicative senescent human dermal fibroblasts: COL1A1. As to conditions: aged fibroblasts from adult dermis (16 passages), cultured 96 h with the substance, compared with young cells (8 passages, 100 %). The test is classed as cell-based, humains.
Source text: as §1, §2

The subject of test [6] is gène codant la Serpine 2B. In words: Q-PCR gene expression in replicative senescent human dermal fibroblasts: Serpine 2B. The test is classed as cell-based, humains. To be noted: aged fibroblasts from adult dermis (16 passages), cultured 96 h with the substance, compared with young cells (8 passages, 100 %).
Source text: as §1, §2

For test [7], the system named is gène codant la protéine de choc thermique (HSP 90A). In words: Q-PCR gene expression in replicative senescent human dermal fibroblasts: HSP 90A. The test is classed as cell-based, humains. To be noted: aged fibroblasts from adult dermis (16 passages), cultured 96 h with the substance, compared with young cells (8 passages, 100 %).
Source text: as §1, §2

Test [8] deals with gène codant la pleiotrophine (PTN). As to the kind of experiment: Q-PCR gene expression in replicative senescent human dermal fibroblasts: PTN. The test is classed as cell-based, humains. As to conditions: aged fibroblasts from adult dermis (16 passages), cultured 96 h with the substance, compared with young cells (8 passages, 100 %).
Source text: as §1, §2

Test [9] relates to gène codant le nidogène (NID). In words: Q-PCR gene expression in replicative senescent human dermal fibroblasts: NID. The class given is cell-based, humains. To be noted: aged fibroblasts from adult dermis (16 passages), cultured 96 h with the substance, compared with young cells (8 passages, 100 %).
Source text: as §1, §2

Test [10] has as its system gène codant le biglycane (BGN). As to the kind of experiment: Q-PCR gene expression in replicative senescent human dermal fibroblasts: BGN. To be noted: aged fibroblasts from adult dermis (16 passages), cultured 96 h with the substance, compared with young cells (8 passages, 100 %). The class given is cell-based, humains.
Source text: as §1, §2

In test [11] the test system is gène codant la Serpine 1H (HSP47). In words: Q-PCR gene expression in replicative senescent human dermal fibroblasts: Serpine 1H (HSP47). The test is classed as cell-based, humains. To be noted: aged fibroblasts from adult dermis (16 passages), cultured 96 h with the substance, compared with young cells (8 passages, 100 %).
Source text: as §1, §2

In test [12] the test system is gène codant la tenascine C (TNC). In words: Q-PCR gene expression in replicative senescent human dermal fibroblasts: TNC. The class given is cell-based, humains. As to conditions: aged fibroblasts from adult dermis (16 passages), cultured 96 h with the substance, compared with young cells (8 passages, 100 %).
Source text: as §1, §2

The subject of test [13] is gène codant la vimentine. In words: Q-PCR gene expression in replicative senescent human dermal fibroblasts: vimentine. The class given is cell-based, humains. To be noted: aged fibroblasts from adult dermis (16 passages), cultured 96 h with the substance, compared with young cells (8 passages, 100 %).
Source text: as §1, §2

As to `CCCCCCCCCCCCCCCC(=O)N[C@@H](C)C(=O)O` [N-palmitoyl alanine], the “niveau d'expression du gène codant la cytokine pro-inflammatoire IL-6” value in test [1] is listed as “diminution du niveau d'expression”. For the same compound, the “diminution de la surface ridée totale” value in [2] stood at 15%. Moreover, in test [3], the “niveau d'expression du gène codant la dermatopontine (DPT)” value was “augmentation du niveau d'expression”. Further, the “niveau d'expression du gène codant la métallo protéinase MMP-1” value in test [4] is “diminution du niveau d'expression”. In test [5], the “niveau d'expression du gène codant le collagène de type I (COL1A1)” value is “augmentation du niveau d'expression”.
In the case of `CCCCCCCCCCCCCCCC(=O)N[C@H](C(=O)O)[C@@H](C)CC` [N-palmitoyl isoleucine], in [6], the “niveau d'expression du gène codant la Serpine 2B” value is “diminution du niveau d'expression”. For the same compound, the “niveau d'expression du gène codant la cytokine pro-inflammatoire IL-6” value in [1] is “diminution du niveau d'expression”. In addition, in [2], the “diminution du nombre de rides” value is given as 40%. The “niveau d'expression du gène codant la protéine de choc thermique (HSP 90A)” value in [7] is listed as “augmentation du niveau d'expression”. Also, the “niveau d'expression du gène codant la dermatopontine (DPT)” value in test [3] is on record as “augmentation du niveau d'expression”. In addition, the “niveau d'expression du gène codant la pleiotrophine (PTN)” value in [8] is reported as “augmentation du niveau d'expression”. Moreover, the “niveau d'expression du gène codant le nidogène (NID)” value in test [9] is “augmentation du niveau d'expression”. Moreover, the “niveau d'expression du gène codant le biglycane (BGN)” value in test [10] is recorded as “augmentation du niveau d'expression”. Further, the “niveau d'expression du gène codant le collagène de type I (COL1A1)” value in test [5] was “augmentation du niveau d'expression”. For the same compound, the “niveau d'expression du gène codant la Serpine 1H (HSP47)” value in [11] is “augmentation du niveau d'expression”. The “niveau d'expression du gène codant la tenascine C (TNC)” value in [12] was “augmentation du niveau d'expression”. Also, the “niveau d'expression du gène codant la vimentine” value in test [13] is recorded as “augmentation du niveau d'expression”.
For the compound `CCCCCCCCCCCCCCCC(=O)NCC(=O)O` [N-palmitoyl glycine], the “niveau d'expression du gène codant la cytokine pro-inflammatoire IL-6” value in test [1] was “diminution du niveau d'expression”. In addition, the “diminution du nombre de rides” value in test [2] amounted to 35%. Moreover, the “niveau d'expression du gène codant la protéine de choc thermique (HSP 90A)” value in test [7] is “augmentation du niveau d'expression”. Besides, in test [3], the “niveau d'expression du gène codant la dermatopontine (DPT)” value is on record as “augmentation du niveau d'expression”. Further, in test [8], the “niveau d'expression du gène codant la pleiotrophine (PTN)” value is reported as “augmentation du niveau d'expression”. Moreover, in [4], the “niveau d'expression du gène codant la métallo protéinase MMP-1” value is “diminution du niveau d'expression”. Further, the “niveau d'expression du gène codant le nidogène (NID)” value in test [9] was “augmentation du niveau d'expression”. Moreover, the “niveau d'expression du gène codant la tenascine C (TNC)” value in [12] is listed as “augmentation du niveau d'expression”.
